According to patent publication US20240059680A1, “N-(2,3-DIHYDRO-1,4-BENZOXAZIN-4-YL)-3-ISOPROPYL-7-(2,3,5-TRIFLUOROPHENYL)BENZO-THIOPHENE-2-CARBOXAMIDE DERIVATIVES AND SIMILAR COMPOUNDS FOR THE TREATMENT OF HEARTWORM INFECTIONS” (ELANCO TIERGESUNDHEIT AG, priority 2020, published 2024):
Converted amounts (≈) assume the structure as drawn.

How the values were obtained:
[1] = tested on: Dirofilaria immitis third-stage larvae; experiment: In Vitro Assay 4: Dirofilaria immitis (DIROIM L4) larval motility; format: cell-based; details: 72 h
C. elegans Slo-1a = C. elegans Slo-1a (Caenorhabditis elegans, UniProt Q95V25)
C. elegans Slo-1a, sequence (Q95V25 whole entry): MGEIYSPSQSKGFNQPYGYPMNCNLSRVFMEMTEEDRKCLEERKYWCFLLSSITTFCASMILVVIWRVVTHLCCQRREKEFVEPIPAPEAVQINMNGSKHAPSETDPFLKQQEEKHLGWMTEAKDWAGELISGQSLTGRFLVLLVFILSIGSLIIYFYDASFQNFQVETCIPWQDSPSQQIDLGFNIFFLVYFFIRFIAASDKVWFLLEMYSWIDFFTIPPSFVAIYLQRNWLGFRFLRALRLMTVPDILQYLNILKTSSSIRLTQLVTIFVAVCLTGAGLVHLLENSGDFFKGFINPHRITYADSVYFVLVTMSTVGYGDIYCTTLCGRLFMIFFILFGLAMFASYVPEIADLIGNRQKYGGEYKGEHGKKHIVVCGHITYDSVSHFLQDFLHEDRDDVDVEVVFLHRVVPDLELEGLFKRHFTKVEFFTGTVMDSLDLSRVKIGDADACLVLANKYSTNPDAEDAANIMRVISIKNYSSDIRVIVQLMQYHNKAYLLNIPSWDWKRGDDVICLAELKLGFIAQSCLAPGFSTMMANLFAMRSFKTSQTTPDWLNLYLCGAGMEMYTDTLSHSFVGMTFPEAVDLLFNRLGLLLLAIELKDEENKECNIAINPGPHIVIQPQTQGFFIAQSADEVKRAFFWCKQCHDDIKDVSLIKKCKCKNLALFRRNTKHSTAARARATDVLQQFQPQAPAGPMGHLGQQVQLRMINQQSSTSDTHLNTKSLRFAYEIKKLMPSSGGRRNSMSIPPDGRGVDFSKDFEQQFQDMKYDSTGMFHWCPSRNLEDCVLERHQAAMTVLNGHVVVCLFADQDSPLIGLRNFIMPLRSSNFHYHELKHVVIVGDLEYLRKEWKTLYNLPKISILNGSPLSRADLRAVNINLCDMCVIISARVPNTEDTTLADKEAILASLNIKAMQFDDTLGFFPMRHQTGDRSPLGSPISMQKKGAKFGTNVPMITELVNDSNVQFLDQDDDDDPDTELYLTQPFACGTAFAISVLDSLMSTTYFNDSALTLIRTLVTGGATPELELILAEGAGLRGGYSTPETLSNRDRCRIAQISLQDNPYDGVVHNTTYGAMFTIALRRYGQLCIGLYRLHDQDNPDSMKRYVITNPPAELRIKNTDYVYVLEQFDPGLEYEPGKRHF
Method: For transfection with plasmid DNA to express C. elegans Slo-1a (accession number AAL28102) CHO cells were passaged to 40% confluence before adding the transfection solution to the cell culture. The transfection solution included 300 μL OptiMEM (Life Technologies, Nr.: 31985), 2 μL (=6 μg) of plasmid DNA containing the C. elegans Slo-1a gene and 9 μL FugeneHD (Promega, Nr.: E2311), and was added to the cells prior to incubation for 48 hours at 37° C., 5% CO2. The transfection medium was exchanged for the selection medium which contains additional G418 (2 mg/ml, Invitrogen, Nr.: 10131) and the cells were seeded into 384 well plates (300 cells/well). After a few weeks, the remaining surviving cells were tested with a voltage sensitive dye (Membrane Potential Assay Kit, Molecular Devices Nr.: R8034) for K+ channel expression. Positive cell clones were purified by the limited dilution technique. For this the clone with the highest and most robust signal in the voltage sensitive dye assay was further subcloned (incubated) in 384 well plates (0.7 cells/well) to obtain clonal purity. This generated a final stable CHO cell line expressing the C. elegans Slo-1a.
Cell culture conditions Cells were cultured at 37° C. and 5% CO2 in MEMalpha with Gutamax I (Invitrogen, Nr.: 32571), supplemented with 10% (v/v) heat inactivated fetal bovine serum (Invitrogen, Nr.: 10500), G418 (1 mg/ml, Invitrogen, Nr.: 10131). Cells were detached using Accutase (Sigma, Nr.: A6964).
Membrane Potential Measurements
Laboratory compound testing was performed on 384-well microtiter plates (MTPs, Greiner, Nr.: 781092). 8000 cells/well were plated onto 384-well MTPs and cultured for 20 to 24 hours at 37° C. and 5% CO2. After removal of the cell culture medium, the cells were washed once with tyrode (150 mM NaCl, 0.3 mM KCl, 2 mM CaCl2, 1 m M MgCl2, 0.8 mM NaH2PO4, 5 mM Glucose, 28 mM Hepes, pH 7.4) and then loaded with the voltage sensitive dye of the Membrane Potential Assay Kit diluted in tyrode for 1 h at room temperature. After starting the measurement of fluorescence using a FLIPR Tetra (Molecular Devices, Exc. 510-545 nm, Emm. 565-625 nm), test compounds were added followed by the addition of KCl tyrode (final assay concentration: 70 mM KCl, 2 mM CaCl2, 1 mM MgCl2, 0.8 mM NaH2PO4, 5 mM Glucose, 28 mM Hepes, pH 7.4, including the voltage sensitive dye). The measurement was completed after 7 minutes.
EC50 values were calculated using a four-parameter plotting by the Scilligence ELN/Regmol Software Tool, Bioassay.

D. immitis Slo-1 = D. immitis Slo-1 (Dirofilaria immitis, UniProt I0DFK5); experiment: In Vitro Assay 2: D. immitis Slo-1, membrane potential measurement in recombinant CHO cell line; format: cell-based
D. immitis Slo-1, sequence (I0DFK5 1-1119): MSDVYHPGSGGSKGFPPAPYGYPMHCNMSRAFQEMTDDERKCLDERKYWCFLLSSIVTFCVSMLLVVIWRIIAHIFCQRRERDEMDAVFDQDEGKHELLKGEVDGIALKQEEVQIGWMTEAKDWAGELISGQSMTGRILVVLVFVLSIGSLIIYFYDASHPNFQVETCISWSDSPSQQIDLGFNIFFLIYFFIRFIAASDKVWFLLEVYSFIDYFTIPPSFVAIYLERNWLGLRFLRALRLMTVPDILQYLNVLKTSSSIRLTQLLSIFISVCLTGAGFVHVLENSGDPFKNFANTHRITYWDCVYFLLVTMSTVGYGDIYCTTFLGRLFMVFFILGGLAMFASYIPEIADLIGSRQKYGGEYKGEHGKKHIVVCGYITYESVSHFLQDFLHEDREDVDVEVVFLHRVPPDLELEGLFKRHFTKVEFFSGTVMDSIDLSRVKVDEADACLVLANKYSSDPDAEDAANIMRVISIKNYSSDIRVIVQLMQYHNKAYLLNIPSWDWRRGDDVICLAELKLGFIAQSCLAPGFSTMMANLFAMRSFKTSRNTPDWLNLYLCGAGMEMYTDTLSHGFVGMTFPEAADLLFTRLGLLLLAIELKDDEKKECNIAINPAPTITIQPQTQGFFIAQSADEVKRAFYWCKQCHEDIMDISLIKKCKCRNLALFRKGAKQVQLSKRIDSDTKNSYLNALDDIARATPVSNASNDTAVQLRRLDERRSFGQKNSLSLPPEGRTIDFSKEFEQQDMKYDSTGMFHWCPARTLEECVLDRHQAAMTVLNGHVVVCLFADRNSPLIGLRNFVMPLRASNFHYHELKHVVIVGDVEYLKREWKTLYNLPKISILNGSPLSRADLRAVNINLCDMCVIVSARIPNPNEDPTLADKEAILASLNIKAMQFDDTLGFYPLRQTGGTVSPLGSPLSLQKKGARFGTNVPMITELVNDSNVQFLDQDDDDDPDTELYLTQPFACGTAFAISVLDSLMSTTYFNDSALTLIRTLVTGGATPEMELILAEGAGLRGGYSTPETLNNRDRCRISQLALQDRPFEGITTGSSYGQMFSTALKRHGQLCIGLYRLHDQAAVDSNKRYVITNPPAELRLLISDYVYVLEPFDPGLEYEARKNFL

[2] = tested on: Dirofilaria immitis microfilariae; experiment: In Vitro Assay 3: Dirofilaria immitis microfilariae (DIROIM L1) motility; format: cell-based; details: 72 h
[3] = tested on: Adult Nippostrongylus brasiliensis; experiment: In Vitro Assay 5: Nippostrongylus brasiliensis (NIPOBR), acetylcholine esterase readout; format: cell-based; details: acetylcholine esterase activity in medium vs negative control, adult worms, read-out: EC50
Method: In Vitro Assay 5: Nippostrongylus Brasiliensis (NIPOBR)
Adult Nippostrongylus brasiliensis were washed with saline buffer containing 100 U/ml penicillin, 0.1 mg/ml streptomycin and 2.5 μg/ml amphotericin B. Test compounds were dissolved in DMSO and worms were incubated in medium in a final concentration of 10 μg/ml (10 ppm), 1 μg/ml (1 ppm) and 0.1 μg/ml (0.1 ppm) respectively. An aliquot of the medium was used to determine the acetylcholine esterase activity in comparison to a negative control. The principle of measuring acetylcholine esterase as readout for anthelmintic activity was described in Rapson et al (1986) and Rapson et al (1987).
Based on the evaluation of a wide concentration range, concentration-response curves as well as EC50-values were calculated.

| SMILES | EC50 [1] | EC50 (C. elegans Slo-1a) | EC50 (D. immitis Slo-1) | EC50 [2] | EC50 [3] |
| --- | --- | --- | --- | --- | --- |
| Cc1nn2c(N3CCOCC3)c(C(=O)NN3CCOc4ccccc43)sc2c1-c1cc(F)cc(F)c1F [Example 4.2, N-(2,3-Dihydro-4H-benzo[b][1,4]oxazin-4-yl)-6-methyl-3-morpholino-7-(2,3,5-trifluorophenyl)pyrazolo[5,1-b]thiazole-2-carboxamide] | < 0.1 mg/L | < 0.1 µM | > 1 µM | < 0.1 mg/L | 0.1 to 1 mg/L (≈ 0.189 to 1.89 µM) |
| O=C(NN1CCOc2ccccc21)c1sc2c(-c3cc(F)cc(F)c3F)nccc2c1N1CCOCC1 [Example 2.1, N-(2,3-Dihydro-1,4-benzoxazin-4-yl)-3-morpholino-7-(2,3,5-trifluorophenyl)thieno-[2,3-c]pyridine-2-carboxamide] | 0.1 to 1 mg/L (≈ 0.19 to 1.9 µM) | 0.1 to 1 µM | 0.1 to 1 µM | 0.1 to 1 mg/L (≈ 0.19 to 1.9 µM) | > 1 mg/L |
| CC(C)(O)c1c(C(=O)NN2CCOc3ccccc32)sc2c(-c3cc(F)cc(F)c3F)ccnc12 [Example 6.5, N-(2,3-Dihydro-4H-benzo[b][1,4]oxazin-4-yl)-3-(2-hydroxypropan-2-yl)-7-(2,3,5-trifluorophenyl)thieno[3,2-b]pyridine-2-carboxamide] | < 0.1 mg/L | < 0.1 µM | < 0.1 µM | < 0.1 mg/L | 0.1 to 1 mg/L (≈ 0.2 to 2 µM) |
| CC(C)c1c(C(=O)NN2CCOc3ccccc32)ccn2c(-c3c(F)ccc(F)c3F)nnc12 [Example 15.1, N-(2,3-Dihydro-1,4-benzoxazin-4-yl)-8-isopropyl-3-(2,3,6-trifluorophenyl)-[1,2,4] triazolo [4,3-a]pyridine-7-carboxamide] | > 1 mg/L | > 1 µM | > 1 µM | 0.1 to 1 mg/L (≈ 0.214 to 2.14 µM) | > 1 mg/L |
| Cc1nn2c(C(C)(C)O)c(C(=O)NN3CCOc4ccccc43)sc2c1-c1cc(F)cc(F)c1F [Example 4.3, N-(2,3-Dihydro-1,4-benzoxazin-4-yl)-3-(2-hydroxypropan-2-yl)-6-methyl-7-(2,3,5-trifluorophenyl)pyrazolo [3,2-b][1,3]thiazole-2-carboxamide] | < 0.1 mg/L | < 0.1 µM | 0.1 to 1 µM | < 0.1 mg/L | 0.1 to 1 mg/L (≈ 0.199 to 1.99 µM) |
| Cc1nn2c(C(C)C)c(C(=O)NN3CCOc4ccccc43)sc2c1-c1cc(F)cc(F)c1F [Example 4.1, N-(2,3-Dihydro-1,4-benzoxazin-4-yl)-3-isopropyl-6-methyl-7-(2,3,5-trifluorophenyl)-pyrazolo[5,1-b]thiazole-2-carboxamide] | < 0.1 mg/L | < 0.1 µM | > 1 µM | 0.1 to 1 mg/L (≈ 0.206 to 2.06 µM) | > 1 mg/L |
| Cc1cnc2c(C(C)C)c(C(=O)NN3CCOc4ccccc43)nn2c1-c1cc(F)cc(F)c1F [Example 9.1, N-(2,3-Dihydro-4H-benzo[b][1,4]oxazin-4-yl)-3-isopropyl-6-methyl-7-(2,3,5-trifluorophenyl)-pyrazolo[1,5-a]pyrimidine-2-carboxamide] | 0.1 to 1 mg/L (≈ 0.208 to 2.08 µM) | > 1 µM | > 1 µM | < 0.1 mg/L | > 1 mg/L |
| CC(C)c1c(C(=O)NN2CCOc3ccccc32)sc2c(-c3cc(F)cc(F)c3F)nccc12 [Example 2.2, N-(2,3-Dihydro-1,4-benzoxazin-4-yl)-3-isopropyl-7-(2,3,5-trifluorophenyl)-thieno[2,3-c]pyridine-2-carboxamide] | < 0.1 mg/L | < 0.1 µM | 0.1 to 1 µM | < 0.1 mg/L | 0.1 to 1 mg/L (≈ 0.207 to 2.07 µM) |
| CC(C)c1c(C(=O)NN2CCOc3ccccc32)cnc2c1nnn2-c1cc(F)cc(F)c1F [Example 14.1, N-(2,3-Dihydro-4H-benzo[b][1,4]oxazin-4-yl)-7-isopropyl-3-(2,3,5-trifluorophenyl)-3H-[1,2,3]triazolo[4,5-b]pyridine-6-carboxamide] | > 1 mg/L | > 1 µM | > 1 µM | < 0.1 mg/L | > 1 mg/L |
